We go through four compounds from ChEMBL document CHEMBL4406827, “Novel 4-quinoline-thiosemicarbazone derivatives: Synthesis, antiproliferative activity, in vitro and in silico biomacromolecule interaction studies and topoisomerase inhibition” (Eur J Med Chem, 2019).

Active and inactive are the calls of the source. No cut-off for these calls is given here.

The subject of data set [1] is Calf thymus DNA. The data set can be described thus: Binding affinity to calf thymus DNA assessed as hypochromicity at 30 uM incubated for 10 mins by UV-Vis absorption spectroscopic method relative to control. The settings on record: Bos taurus. The data set is classed as nucleic-acid assay.
For data set [2], the system named is Calf thymus DNA. As to the kind of experiment: Binding affinity to calf thymus DNA assessed as binding constant incubated for 10 mins by UV-Vis absorption spectroscopic method. The data set is classed as nucleic-acid assay. As to conditions: Bos taurus.
Data set [3] concerns Calf thymus DNA. As to the kind of experiment: Binding affinity to calf thymus DNA assessed as fold change in hyperchromicity at 10 uM by fluorescence emission spectrum analysis relative to control. The data set is classed as nucleic-acid assay. As to conditions: Bos taurus.
Data set [4] deals with Calf thymus DNA. The data set can be described thus: Binding affinity to calf thymus DNA assessed as DNA spectral changes at 30 uM incubated for 10 mins by circular dichroism method. The data set is classed as nucleic-acid assay. As to conditions: Bos taurus. In general terms: CD spectra are sensitive to the conformation of chiral molecules.
The test system of data set [5] is Salmon testes DNA. The data set can be described thus: Binding affinity to salmon sperm […] DNA assessed as DNA intercalation by measuring increase in viscosity at 12 to 60 uM by viscometric method. The data set is classed as nucleic-acid assay. As to conditions: Salmonidae.
In data set [6] the target is T1, Albumin (Bos taurus, UniProt P02769). The data set can be described thus: Binding affinity to bovine serum albumin assessed as hyperchromicity at 5 to 40 uM incubated for 10 mins by UV-Vis absorption spectroscopic method relative to control. The data set is classed as ADME. The settings on record: cattle, isolated protein.
Data set [7] has as its target T1, Albumin. As to the kind of experiment: Binding affinity to bovine serum albumin assessed as binding constant incubated for 10 mins by UV-Vis absorption spectroscopic method. The data set is classed as ADME. As to conditions: cattle, isolated protein.
In data set [8] the target is T1, Albumin. The data set can be described thus: Binding affinity to bovine serum albumin assessed as hypochromicity at 5 to 40 uM by fluorescence emission spectrum analysis method relative to control. The data set is classed as ADME. The settings on record: cattle, isolated protein.
In data set [9] the target is T1, Albumin. The data set can be described thus: Binding affinity to bovine serum albumin assessed as Stem-Volmer quenching constant incubated for 10 mins by fluorescence emission spectrum analysis. The data set is classed as ADME. The settings on record: cattle, isolated protein.
A short description of data set [10]: Cytotoxicity against mouse RAW264.7 cells assessed as reduction in cell viability incubated for 48 hrs by MTT assay. It counts as cell-based.
Data set [11] has as its system MCF7. The data set can be described thus: Cytotoxicity against human MCF7 cells assessed as reduction in cell viability incubated for 48 hrs by MTT assay. It counts as functional, cell-based. The settings on record: MCF7, 48 h. (Formazan colour is commonly taken as a measure of viable cells.)
The test system of data set [12] is T47D. As to the kind of experiment: Cytotoxicity against human T47D cells assessed as reduction in cell viability incubated for 48 hrs by MTT assay. The data set is classed as functional, cell-based.
A short description of data set [13]: Selectivity index, ratio of CC50 for mouse RAW264.7 cells to ratio of IC50 for human MCF7 cells. The data set is classed as toxicity. The settings on record: RAW264.7 cells and MCF7 cells, read-out: Ratio CC50/IC50.
Data set [14] in a line: Selectivity index, ratio of CC50 for mouse RAW264.7 cells to ratio of IC50 for human T47D cells. The data set is classed as toxicity. As to conditions: RAW264.7 cells and T47D cells, read-out: Ratio CC50/IC50.
The target of data set [15] is DNA topoisomerase 2-alpha (Homo sapiens) (UniProt P11388). The data set can be described thus: Inhibition of recombinant human topoisomerase 2alpha using supercoiled pUC19 plasmid DNA as substrate at 10 uM incubated for 45 mins by ethidium bromide dye based agarose gel electrophoresis method.
The target of data set [16] is T1, Albumin. The data set can be described thus: Binding affinity to bovine serum albumin assessed as hypsochromic shift at 5 to 40 uM by fluorescence emission spectrum analysis method. The settings on record: cattle, isolated protein. It counts as ADME.
Data set [17] relates to Calf thymus DNA. The data set can be described thus: Binding affinity to calf thymus DNA assessed as hyperchromicity at 30 uM incubated for 10 mins by UV-Vis absorption spectroscopic method relative to control. It counts as nucleic-acid assay. The settings on record: Bos taurus.
For data set [18], the system named is Calf thymus DNA. The data set can be described thus: Binding affinity to calf thymus DNA assessed as fold change in hypochromicity at 10 uM by fluorescence emission spectrum analysis relative to control. It counts as nucleic-acid assay. The settings on record: Bos taurus.
For data set [19], the system named is Calf thymus DNA. As to the kind of experiment: Binding affinity to calf thymus DNA assessed as bathochromic shift at 30 uM incubated for 10 mins by UV-Vis absorption spectroscopic method. The data set is classed as nucleic-acid assay. As to conditions: Bos taurus.
The subject of data set [20] is Calf thymus DNA. As to the kind of experiment: Binding affinity to calf thymus DNA assessed as DNA spectral changes by measuring decrease in positive band at 274 nm at 30 uM incubated for 10 mins by circular dichroism method. It counts as nucleic-acid assay. As to conditions: Bos taurus.
The subject of data set [21] is Calf thymus DNA. The data set can be described thus: Binding affinity to calf thymus DNA assessed as DNA spectral changes by measuring increase in negative band at 245 nm at 30 uM incubated for 10 mins by circular dichroism method. The settings on record: Bos taurus. It counts as nucleic-acid assay.
For data set [22], the system named is Calf thymus DNA. As to the kind of experiment: Binding affinity to calf thymus DNA assessed as hypsochromic shift at 10 uM by fluorescence emission spectrum analysis. The data set is classed as nucleic-acid assay. The settings on record: Bos taurus.
In data set [23] the target is T1, Albumin. The data set can be described thus: Binding affinity to bovine serum albumin assessed as hypsochromic shift at 5 to 40 uM incubated for 10 mins by UV-Vis absorption spectroscopic method relative to control. The data set is classed as ADME. As to conditions: cattle, isolated protein.

Sequence of DNA topoisomerase 2-alpha (Homo sapiens) (P11388 whole entry): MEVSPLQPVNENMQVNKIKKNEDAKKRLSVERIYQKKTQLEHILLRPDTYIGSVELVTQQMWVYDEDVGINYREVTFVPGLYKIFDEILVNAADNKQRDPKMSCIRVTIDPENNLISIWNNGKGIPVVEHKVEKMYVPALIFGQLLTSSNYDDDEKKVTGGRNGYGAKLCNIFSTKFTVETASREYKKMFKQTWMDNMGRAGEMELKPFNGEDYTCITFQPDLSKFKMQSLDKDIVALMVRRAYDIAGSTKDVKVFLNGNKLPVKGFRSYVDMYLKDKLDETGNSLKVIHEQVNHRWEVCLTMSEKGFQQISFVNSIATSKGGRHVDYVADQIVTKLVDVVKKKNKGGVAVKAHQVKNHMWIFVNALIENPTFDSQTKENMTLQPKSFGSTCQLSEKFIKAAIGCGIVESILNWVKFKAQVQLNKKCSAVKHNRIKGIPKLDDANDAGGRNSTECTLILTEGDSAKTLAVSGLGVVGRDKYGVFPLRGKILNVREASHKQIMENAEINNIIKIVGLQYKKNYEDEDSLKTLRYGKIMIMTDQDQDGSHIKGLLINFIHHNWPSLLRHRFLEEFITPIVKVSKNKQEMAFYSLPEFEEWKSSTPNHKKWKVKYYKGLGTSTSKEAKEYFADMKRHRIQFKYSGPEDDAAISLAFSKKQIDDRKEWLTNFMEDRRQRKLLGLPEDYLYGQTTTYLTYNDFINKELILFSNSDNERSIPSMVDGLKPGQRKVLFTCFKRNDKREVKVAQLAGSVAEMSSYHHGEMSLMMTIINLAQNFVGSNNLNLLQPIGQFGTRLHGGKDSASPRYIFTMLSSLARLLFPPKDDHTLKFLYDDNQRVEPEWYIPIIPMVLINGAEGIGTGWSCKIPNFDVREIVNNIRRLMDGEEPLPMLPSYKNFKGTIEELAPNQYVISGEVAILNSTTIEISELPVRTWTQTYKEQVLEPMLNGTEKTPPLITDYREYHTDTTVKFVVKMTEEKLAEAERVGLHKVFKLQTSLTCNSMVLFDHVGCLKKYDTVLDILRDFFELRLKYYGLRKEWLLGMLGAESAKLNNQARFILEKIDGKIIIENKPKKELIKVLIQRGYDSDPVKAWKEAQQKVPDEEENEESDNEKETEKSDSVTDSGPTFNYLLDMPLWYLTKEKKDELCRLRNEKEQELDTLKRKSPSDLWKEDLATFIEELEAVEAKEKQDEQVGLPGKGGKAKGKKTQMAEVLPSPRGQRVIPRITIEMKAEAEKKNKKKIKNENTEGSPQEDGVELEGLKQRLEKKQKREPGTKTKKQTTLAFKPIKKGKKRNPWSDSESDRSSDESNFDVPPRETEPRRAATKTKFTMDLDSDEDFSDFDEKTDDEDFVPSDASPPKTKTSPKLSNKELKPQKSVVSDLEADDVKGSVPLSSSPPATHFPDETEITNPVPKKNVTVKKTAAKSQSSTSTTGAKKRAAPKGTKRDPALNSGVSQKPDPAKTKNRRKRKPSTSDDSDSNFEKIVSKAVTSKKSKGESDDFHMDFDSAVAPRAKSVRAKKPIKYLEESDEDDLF
T1 sequence (P02769 whole entry): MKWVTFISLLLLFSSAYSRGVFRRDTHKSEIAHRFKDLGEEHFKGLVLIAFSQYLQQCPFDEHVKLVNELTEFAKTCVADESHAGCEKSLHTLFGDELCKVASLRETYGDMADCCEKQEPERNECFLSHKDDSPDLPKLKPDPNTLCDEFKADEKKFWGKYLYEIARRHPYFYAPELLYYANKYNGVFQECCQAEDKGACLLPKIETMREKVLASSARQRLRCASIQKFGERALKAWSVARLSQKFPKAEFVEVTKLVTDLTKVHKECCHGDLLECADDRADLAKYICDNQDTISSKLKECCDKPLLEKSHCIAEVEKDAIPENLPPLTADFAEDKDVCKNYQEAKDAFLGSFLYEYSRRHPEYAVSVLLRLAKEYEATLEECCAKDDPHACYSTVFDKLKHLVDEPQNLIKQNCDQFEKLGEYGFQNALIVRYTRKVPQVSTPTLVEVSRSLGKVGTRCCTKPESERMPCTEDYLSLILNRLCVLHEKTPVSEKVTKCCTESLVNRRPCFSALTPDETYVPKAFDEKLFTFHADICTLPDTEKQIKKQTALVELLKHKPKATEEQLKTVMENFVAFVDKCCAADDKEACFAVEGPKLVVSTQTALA

For `S=C(N/N=C\c1ccnc2ccccc12)Nc1cccnc1`, the Activity was 20.3% in data set [1], 52.95% in data set [6], 493.41% in data set [8] and “Active” in data set [16]. Besides, the Kb in data set [2] was determined as 1.96 ×10⁵ /M; in data set [7], 8.03 ×10⁴ /M. For the same compound, the fold change (FC) in [3] came to 0.89. Further, the result in [4] and in [5] was Active. Besides, the KSV in [9] stood at 3.99 ×10⁴ /M. For the same compound, in [10], the CC50 (commonly the concentration giving 50% cytotoxicity) at 48 h came to 91600 nM. Further, the IC50 (in general, the concentration at which inhibition is half-maximal) in [11] came to 970 nM; in data set [12], 1100 nM. Further, the selectivity ratio in data set [13] worked out at 94.4; in [14], 83.3. In [15], the inhibition entry was “inactive”.

As for `C=CCNC(=S)N/N=C\c1ccnc2ccccc12`, the Activity in data set [17] was 2.88%; in [6] it was 52.42%; in data set [8], 371.21%; in data set [16] it was “Active”. Moreover, the Kb stood at 3.98 ×10⁴ /M in data set [2] and 1.44 ×10⁵ /M in data set [7]. Besides, the fold change (FC) in data set [18] amounted to 6.64. The result in [4], in [5] and in data set [19] was Active. Moreover, in data set [9], the KSV is 10.39 ×10⁴ /M. In data set [10], the CC50 at 48 h was 105000 nM. The values for the IC50 in data set [11] and in [12] were 970 nM and 1230 nM, respectively. Moreover, the selectivity ratio in data set [13] was 108; in [14], 85.5. For the same compound, the inhibition result in data set [15] is “Active”.

`CCc1ccc(NC(=S)N/N=C\c2ccnc3ccccc23)cc1`: the Activity in data set [17] was 51.4%; in [6], 69.01%; in [8] it was 601.57%; in data set [23], “Active”; in data set [16] it was “Active”. Further, the Kb in data set [2] was 1.62 ×10⁶ /M; in [7], 1.43 ×10⁵ /M. Further, the fold change (FC) in data set [18] was 4.65. In addition, the outcome in [20], in data set [21], in [5], in data set [19] and in data set [22] was Active. Moreover, the KSV in data set [9] was 16.05 ×10⁴ /M. Also, the CC50 at 48 h in data set [10] was 35700 nM. Further, the IC50 in data set [11] was 820 nM; in data set [12], 1280 nM. Besides, the selectivity ratio in data set [13] turned out to be 43.6; in data set [14] it was 27.9. Also, in data set [15], the inhibition result was “inactive”.

For the compound `Cc1ccc(NC(=S)N/N=C\c2ccnc3ccccc23)cc1`, the Activity in data set [17] is 11.8%; in data set [6] it was 58.04%; in data set [8] it was 287.44%; in data set [16], “Active”. In addition, the Kb in data set [2] was 3.56 ×10⁵ /M; in [7], 1.39 ×10⁵ /M. Moreover, the fold change (FC) in [18] was found to be 2.77. The outcome in data set [4], in data set [5], in data set [19] and in [22] was Active. Further, the KSV in data set [9] was 8.85 ×10⁴ /M. In data set [10], the CC50 at 48 h is 50500 nM. For the same compound, the IC50 in [11] is 980 nM; in data set [12] it was 1320 nM. The figures for the selectivity ratio in [13] and in data set [14] were 51.5 and 38.3, respectively. Further, the inhibition result in data set [15] is “inactive”.
